In PubChem BioAssay (NCI):
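Step 1: Grow cells in 96-well plates. Step 2: Expose to compound for 48 hours at 5 concentrations. Step 3: Interpolate endpoints linearly; if unreached, use highest concentration. Abbreviation: GI50, concentration required for 50% inhibition of growth. Definition used: TGI = concentration required for complete inhibition of growth.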

Key:
Assay in all cases: inhibition of tumour cell growth, NCI panel, 48 h
U251 CNS = tested on: U251 CNS
SK-MEL-2 melanoma = tested on: SK-MEL-2 melanoma
A549 NSCLC = tested on: A549 NSCLC
SF-268 CNS = tested on: SF-268 CNS
KM12 colon = tested on: KM12 colon
COLO 205 colon = tested on: COLO 205 colon
BT-549 breast = tested on: BT-549 breast
PC-3 prostate = tested on: PC-3 prostate
RPMI-8226 leukemia = tested on: RPMI-8226 leukemia
HOP-92 NSCLC = tested on: HOP-92 NSCLC

## NC(=O)N/N=C(\CCC(=O)N(Cc1ccccc1)Cc1ccccc1)CC(=O)c1ccc(F)cc1
U251 CNS
  TGI: > 100 µM
SK-MEL-2 melanoma
  TGI: > 100 µM
A549 NSCLC
  TGI: > 100 µM
SF-268 CNS
  TGI: > 100 µM
KM12 colon
  TGI: > 100 µM
COLO 205 colon
  TGI: > 100 µM

## CC1=NN(C(=O)c2nn(-c3ccc(Cl)cc3)cc2O)C(=O)C1
BT-549 breast
  GI50: 0.766 µM
  TGI: > 100 µM
U251 CNS
  GI50: 0.734 µM
  TGI: > 100 µM
PC-3 prostate
  GI50: 0.348 µM
  TGI: > 100 µM
SK-MEL-2 melanoma
  GI50: 53.7 µM
  TGI: > 100 µM
RPMI-8226 leukemia
  GI50: 1.07 µM
  TGI: > 88.9 µM
A549 NSCLC
  GI50: 2.92 µM
  TGI: > 100 µM
SF-268 CNS
  GI50: 0.632 µM
  TGI: > 100 µM
KM12 colon
  GI50: 4.52 µM
  TGI: > 100 µM
COLO 205 colon
  GI50: 3.78 µM
  TGI: > 82.6 µM

## COC(=O)c1nc(N)nc(C(=O)OC)c1C(=O)c1ccccc1
U251 CNS
  TGI: > 100 µM
SK-MEL-2 melanoma
  TGI: > 100 µM
RPMI-8226 leukemia
  TGI: > 100 µM
A549 NSCLC
  TGI: > 100 µM
HOP-92 NSCLC
  TGI: > 100 µM
SF-268 CNS
  TGI: > 100 µM
KM12 colon
  TGI: > 100 µM

## COC1(Cc2ccccc2)C(=O)c2ccccc2N1C(C)=O (stereo unspecified)
U251 CNS
  TGI: > 100 µM
SK-MEL-2 melanoma
  TGI: > 100 µM
RPMI-8226 leukemia
  TGI: > 100 µM
A549 NSCLC
  TGI: > 100 µM
HOP-92 NSCLC
  TGI: > 100 µM
KM12 colon
  TGI: > 100 µM
COLO 205 colon
  TGI: > 100 µM

## COc1ccc(/C(C#N)=C(/N)SCc2ccccc2Cl)cc1
U251 CNS
  TGI: 32.6 µM
SK-MEL-2 melanoma
  TGI: 32.6 µM
RPMI-8226 leukemia
  TGI: > 100 µM
A549 NSCLC
  TGI: > 100 µM
HOP-92 NSCLC
  TGI: 34.5 µM
SF-268 CNS
  TGI: 33.2 µM
KM12 colon
  TGI: > 10 µM
COLO 205 colon
  TGI: 41.6 µM

## CC(=O)O[C@H]1CC[C@@]2(C)C(=C/C(=N\[N+](=O)[O-])[C@H]3C4CCC([C@H](C)CCCC(C)C)[C@@]4(C)CCC32)C1 (stereo partly specified)
SK-MEL-2 melanoma
  TGI: > 100 µM
RPMI-8226 leukemia
  TGI: > 100 µM
A549 NSCLC
  TGI: > 100 µM
HOP-92 NSCLC
  TGI: > 100 µM
SF-268 CNS
  TGI: > 100 µM
COLO 205 colon
  TGI: > 100 µM

## O=c1[nH]cnc2c1ncn2CCCCO
RPMI-8226 leukemia
  TGI: > 100 µM
A549 NSCLC
  TGI: > 100 µM
HOP-92 NSCLC
  TGI: > 100 µM
SF-268 CNS
  TGI: > 100 µM
KM12 colon
  TGI: > 100 µM
COLO 205 colon
  TGI: > 100 µM

## Cc1ccc(Nc2nc(C)c(C(/C=C/c3ccc4c(c3)OCO4)=N/Nc3ccc([N+](=O)[O-])cc3[N+](=O)[O-])s2)c([N+](=O)[O-])c1
U251 CNS
  TGI: > 100 µM
SK-MEL-2 melanoma
  TGI: > 100 µM
A549 NSCLC
  TGI: > 100 µM
SF-268 CNS
  TGI: > 100 µM
KM12 colon
  TGI: > 100 µM
COLO 205 colon
  TGI: > 100 µM

## OC1c2ccccc2C2C(O)c3ccccc3C12 (stereo unspecified)
U251 CNS
  TGI: > 100 µM
SK-MEL-2 melanoma
  TGI: > 100 µM
RPMI-8226 leukemia
  TGI: > 100 µM
A549 NSCLC
  TGI: > 100 µM
HOP-92 NSCLC
  TGI: > 100 µM
SF-268 CNS
  TGI: > 100 µM
KM12 colon
  TGI: > 100 µM
COLO 205 colon
  TGI: > 100 µM

## CC1=C(C(=O)Nc2ccccc2C)C(c2ccccc2C)C(C(=O)Nc2ccccc2C)=C(C)N1
U251 CNS
  TGI: 40.3 µM
SK-MEL-2 melanoma
  TGI: 38.8 µM
RPMI-8226 leukemia
  TGI: 81.3 µM
A549 NSCLC
  TGI: > 100 µM
HOP-92 NSCLC
  TGI: 29.4 µM
SF-268 CNS
  TGI: 69.5 µM
KM12 colon
  TGI: 37.8 µM
COLO 205 colon
  TGI: 62.5 µM

## COc1cc(/C=C\c2ccc(Cl)cc2)cc(OC)c1OC
U251 CNS
  TGI: > 100 µM
SK-MEL-2 melanoma
  TGI: 16.3 µM
RPMI-8226 leukemia
  TGI: 46.4 µM
A549 NSCLC
  TGI: > 100 µM
SF-268 CNS
  TGI: > 100 µM
KM12 colon
  TGI: > 100 µM
COLO 205 colon
  TGI: > 36.3 µM

## CC1CC(=O)c2c(ccc3c2C(=O)c2cccc(O)c2C3=O)C1 (stereo unspecified)
U251 CNS
  TGI: 26.5 µM
SK-MEL-2 melanoma
  TGI: 22.6 µM
RPMI-8226 leukemia
  TGI: 39.1 µM
A549 NSCLC
  TGI: 26.4 µM
HOP-92 NSCLC
  TGI: 13.1 µM
SF-268 CNS
  TGI: 31.1 µM
KM12 colon
  TGI: 26.7 µM
COLO 205 colon
  TGI: 25.2 µM

## O=C1OC(OC/C(Br)=C(/Br)COC2OC(=O)C(Cl)=C2Cl)C(Cl)=C1Cl (stereo unspecified)
U251 CNS
  TGI: 24.2 µM
PC-3 prostate
  TGI: 30.2 µM
SK-MEL-2 melanoma
  TGI: 44.8 µM
RPMI-8226 leukemia
  TGI: 5.19 µM
A549 NSCLC
  TGI: 48.9 µM
HOP-92 NSCLC
  TGI: 29.2 µM
SF-268 CNS
  TGI: 35.5 µM
KM12 colon
  TGI: 21.8 µM
COLO 205 colon
  TGI: 10.4 µM

## COc1ccc(OC)c(/C=N/N=C2\C(=O)Nc3c(Cl)cc(Cl)cc32)c1
BT-549 breast
  TGI: 72.5 µM
U251 CNS
  TGI: > 100 µM
PC-3 prostate
  TGI: > 100 µM
SK-MEL-2 melanoma
  TGI: 68.8 µM
A549 NSCLC
  TGI: > 100 µM
HOP-92 NSCLC
  TGI: > 100 µM
KM12 colon
  TGI: > 100 µM
COLO 205 colon
  TGI: > 100 µM

## CCOC(=O)c1cn(CC)c2cc3c(cc2c1=O)SCS3
U251 CNS
  TGI: > 100 µM
SK-MEL-2 melanoma
  TGI: > 100 µM
RPMI-8226 leukemia
  TGI: > 100 µM
A549 NSCLC
  TGI: > 100 µM
HOP-92 NSCLC
  TGI: > 100 µM
SF-268 CNS
  TGI: > 100 µM
KM12 colon
  TGI: > 100 µM
COLO 205 colon
  TGI: > 100 µM

## CCSC(=O)C1(C)OC2CCCCC2C1=O (stereo unspecified)
U251 CNS
  TGI: > 100 µM
SK-MEL-2 melanoma
  TGI: > 100 µM
RPMI-8226 leukemia
  TGI: > 100 µM
A549 NSCLC
  TGI: > 100 µM
SF-268 CNS
  TGI: > 100 µM
KM12 colon
  TGI: > 100 µM
COLO 205 colon
  TGI: > 100 µM

## CCOC(=O)C1Oc2ccc([N+](=O)[O-])cc2C1(C)O (stereo unspecified)
U251 CNS
  TGI: > 100 µM
SK-MEL-2 melanoma
  TGI: > 100 µM
RPMI-8226 leukemia
  TGI: > 100 µM
A549 NSCLC
  TGI: > 100 µM
HOP-92 NSCLC
  TGI: > 100 µM
SF-268 CNS
  TGI: > 100 µM
KM12 colon
  TGI: > 100 µM
COLO 205 colon
  TGI: > 100 µM

## O=C1NN=CN2C(=O)CCC12 (stereo unspecified)
U251 CNS
  TGI: > 100 µM
SK-MEL-2 melanoma
  TGI: > 100 µM
RPMI-8226 leukemia
  TGI: > 100 µM
A549 NSCLC
  TGI: > 100 µM
HOP-92 NSCLC
  TGI: > 100 µM
SF-268 CNS
  TGI: > 100 µM
KM12 colon
  TGI: > 100 µM
COLO 205 colon
  TGI: > 100 µM

## COC1C(O)C(C)OC(O[C@@H]2C[C@H]3CC[C@@H]4[C@H](CC[C@]5(C)[C@@H](C6=CC(=O)OC6)CC[C@]45O)[C@@]3(C)[C@H](O)C2)C1O (stereo partly specified)
BT-549 breast
  TGI: 0.159 µM
U251 CNS
  TGI: 12.5 µM
SK-MEL-2 melanoma
  TGI: 1.7 µM
RPMI-8226 leukemia
  TGI: 0.0725 µM
A549 NSCLC
  TGI: < 0.0462 µM
HOP-92 NSCLC
  TGI: > 100 µM
SF-268 CNS
  TGI: 0.171 µM
KM12 colon
  TGI: 1.8 µM
COLO 205 colon
  TGI: 1.05 µM

## Cc1cc(C)nc(NS(=O)(=O)c2ccc(NC(=O)c3cccc4c(N)c5ccccc5nc34)cc2)n1
U251 CNS
  TGI: > 100 µM
SK-MEL-2 melanoma
  TGI: > 100 µM
RPMI-8226 leukemia
  TGI: > 100 µM
A549 NSCLC
  TGI: > 100 µM
SF-268 CNS
  TGI: > 100 µM
KM12 colon
  TGI: > 100 µM
COLO 205 colon
  TGI: > 100 µM

## NNC(=S)N/N=C(/C(=O)Nc1ccc([N+](=O)[O-])cc1)c1nc2ccc([N+](=O)[O-])cc2[nH]c1=O
U251 CNS
  TGI: > 100 µM
SK-MEL-2 melanoma
  TGI: > 100 µM
RPMI-8226 leukemia
  TGI: > 100 µM
A549 NSCLC
  TGI: > 100 µM
HOP-92 NSCLC
  TGI: > 100 µM
SF-268 CNS
  TGI: > 100 µM
KM12 colon
  TGI: > 100 µM
COLO 205 colon
  TGI: > 100 µM

## COC(=O)C1C(/C=C/c2ccoc2)ON2CCC[C@@H]12 (stereo partly specified)
U251 CNS
  TGI: > 100 µM
SK-MEL-2 melanoma
  TGI: > 100 µM
A549 NSCLC
  TGI: > 100 µM
HOP-92 NSCLC
  TGI: > 100 µM
SF-268 CNS
  TGI: > 100 µM
KM12 colon
  TGI: > 100 µM
COLO 205 colon
  TGI: > 100 µM

## Oc1ccc(O)c2c1C1(Cl)C(Cl)=C(Cl)C2(Cl)C1(Cl)Cl
U251 CNS
  GI50: 5.76 µM
  TGI: 20 µM
PC-3 prostate
  GI50: 3.14 µM
  TGI: 16.4 µM
RPMI-8226 leukemia
  GI50: 4.82 µM
  TGI: 63.3 µM
A549 NSCLC
  GI50: 5.89 µM
  TGI: 37.4 µM
HOP-92 NSCLC
  GI50: 1.51 µM
  TGI: 7.13 µM
SF-268 CNS
  GI50: 3.31 µM
  TGI: 15.5 µM
KM12 colon
  GI50: 2.44 µM
  TGI: 7.62 µM
COLO 205 colon
  GI50: 11.6 µM
  TGI: 25.4 µM

## O=C1NN=C(c2ccc([N+](=O)[O-])cc2)C1n1nc(-c2ccccc2)c2ccccc2c1=O (stereo unspecified)
U251 CNS
  TGI: > 100 µM
SK-MEL-2 melanoma
  TGI: > 100 µM
RPMI-8226 leukemia
  TGI: > 70 µM
A549 NSCLC
  TGI: > 100 µM
HOP-92 NSCLC
  TGI: > 100 µM
SF-268 CNS
  TGI: > 100 µM
KM12 colon
  TGI: > 100 µM
COLO 205 colon
  TGI: > 100 µM

## CCOC(=O)/C=C1\Oc2ccccc2C1(C)O (stereo unspecified)
U251 CNS
  TGI: > 100 µM
SK-MEL-2 melanoma
  TGI: > 100 µM
RPMI-8226 leukemia
  TGI: > 100 µM
A549 NSCLC
  TGI: > 100 µM
HOP-92 NSCLC
  TGI: > 100 µM
SF-268 CNS
  TGI: > 100 µM
KM12 colon
  TGI: > 100 µM
COLO 205 colon
  TGI: > 100 µM
